Assay results as given in patent US6184238A, “N-hydroxyurea derivative and pharmaceutical composition containing the same” (Nikken Chemicals Co., Ltd., priority 1996, dated 2001).
Read-outs that look alike come from different tables or passages of the source.

What was measured:
Thromboxane synthase = target: T1, Thromboxane synthase (Homo sapiens, UniProt P24557); assay: Thromboxane synthase inhibitory activity (thromboxane B2 production, human platelet microsomes); type: biochemical; conditions: prostaglandin H2 added, pH 7.5, read-out: TxSI IC50 (inhibition of thromboxane B2 production)
T1 construct: Human platelet microsomes were used; from tissue; host or cells: human platelet microsomes
T1 sequence (P24557 1-533): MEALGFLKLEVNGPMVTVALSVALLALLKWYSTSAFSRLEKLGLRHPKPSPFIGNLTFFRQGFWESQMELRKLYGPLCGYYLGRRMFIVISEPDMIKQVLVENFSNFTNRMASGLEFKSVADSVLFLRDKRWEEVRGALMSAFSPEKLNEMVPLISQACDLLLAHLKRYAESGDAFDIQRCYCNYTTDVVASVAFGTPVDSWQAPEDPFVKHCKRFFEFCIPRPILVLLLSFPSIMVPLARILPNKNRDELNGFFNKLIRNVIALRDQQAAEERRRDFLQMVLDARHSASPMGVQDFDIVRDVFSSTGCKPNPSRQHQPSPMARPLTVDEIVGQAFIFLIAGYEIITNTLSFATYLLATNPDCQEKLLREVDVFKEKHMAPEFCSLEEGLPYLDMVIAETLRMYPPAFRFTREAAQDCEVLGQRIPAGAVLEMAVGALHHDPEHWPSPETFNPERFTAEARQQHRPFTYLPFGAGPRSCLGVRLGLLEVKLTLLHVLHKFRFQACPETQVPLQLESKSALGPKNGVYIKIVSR
Protocol: (Test of Thromboxane synthase Inhibitory Activity)
Human platelet microsomes were used and a test performed using as an indicator the amount of production of the thromboxane A2 stable metabolite thromboxane B2. A buffer solution (20 mM tris-HCl buffer solution, 1 mM EDTA, pH 7.5) containing human platelet microsomes (50 μg protein/ ml) and the test compound (final concentration of 10^-6 M) was stirred, then incubated at 0° C. for 30 minutes, followed by adding prostaglandin H2 (100 ng/2 μl). This was made acidic to stop the reaction, then neutralized with 1M Tris-base, then centrifuged at 3000 rpm for 20 minutes. The amount of the thromboxane B2 in the supernatant was measured by the EIA method (Cayman Co. kit).
As the test compound, the compounds 1, 6, 10, 11, 18 to 21, 24 to 27, 35, 40, 41, 44, and 45 were used for the test.

Lipoxygenase = target: T2, Lipoxygenase (Rattus norvegicus, UniProt P12527); assay: Lipoxygenase inhibitory activity (leukotriene B4 production, rat polymorphonuclear leukocytes); type: cell-based
T2 construct: Using rat polymorphonuclear leukocytes; endogenous in cells; host or cells: casein-elicited peritoneal polymorphonuclear leukocytes of male Wistar rats
T2 sequence (P12527 1-673): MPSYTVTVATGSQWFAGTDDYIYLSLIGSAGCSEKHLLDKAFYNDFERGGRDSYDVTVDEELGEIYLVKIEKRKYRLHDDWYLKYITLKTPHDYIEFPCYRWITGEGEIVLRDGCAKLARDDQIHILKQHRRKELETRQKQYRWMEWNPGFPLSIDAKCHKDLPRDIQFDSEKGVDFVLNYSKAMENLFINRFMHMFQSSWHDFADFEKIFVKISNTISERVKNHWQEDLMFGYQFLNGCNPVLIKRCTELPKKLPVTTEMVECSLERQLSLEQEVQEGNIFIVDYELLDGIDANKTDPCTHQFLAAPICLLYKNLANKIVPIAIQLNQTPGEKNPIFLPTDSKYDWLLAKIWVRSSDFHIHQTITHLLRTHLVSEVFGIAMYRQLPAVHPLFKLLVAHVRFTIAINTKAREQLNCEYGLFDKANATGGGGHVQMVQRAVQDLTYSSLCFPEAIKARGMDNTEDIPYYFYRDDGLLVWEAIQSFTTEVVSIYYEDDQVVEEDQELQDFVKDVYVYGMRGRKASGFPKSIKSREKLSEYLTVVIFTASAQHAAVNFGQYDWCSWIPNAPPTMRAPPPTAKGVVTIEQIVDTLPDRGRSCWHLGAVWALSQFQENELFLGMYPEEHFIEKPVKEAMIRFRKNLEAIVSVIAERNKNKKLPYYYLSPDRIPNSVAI
Protocol: (Test of Lipoxygenase Inhibitory Activity)
Using rat polymorphonuclear leukocytes, a test was conducted using as an indicator the amount of production of leukotriene B4. Wistar male rats (Japan Clea) were intraperitoneally administered with 12% sodium casein. After 16 hours, the peritoneal cavities were lavaged and the polymorphonuclear leukocytes were recovered. The polymorphonuclear leukocytes thus obtained were suspended in a phosphate buffer (137 mM NaCl, 3 mM KCl, 8 mM Na2 HPO4, 2 mM KH2 PO4) (2.5×10^5 cells/0.4 ml), then the test compound (final concentration 10^-5 M) was added and incubation performed for 10 minutes at 37° C. then a calcium solution (10 mM CaCl2, 0.86% NaCl) 0.1 ml was added and incubation performed for 5 minutes, then 1.25 μl of calcium ionophore (20 μm, A-23187) was added and the reaction started. Five minutes after the addition, 250 μl of methanol was added to stop the reaction. After the reaction was stopped, the result was centrifuged for 20 minutes (4° C., 3000 rpm), then the amount of leukotriene B4 in the supernatant was measured by the EIA method (Cayman Co. kit).
As the test compound, the same compounds as in Test Example 1 were used for the test.

[1] = tested on: Antigen-Induced Bronchoconstriction Model of Guinea Pig; assay: Antigen-induced bronchoconstriction model of guinea pig (Konzett-Rossler method); type: in vivo; conditions: Cavia porcellus, 1 h; guinea pigs sensitized by ovalbumin; oral; one hour after administration; read-out: Suppression of respiratory constriction (ED50)
Protocol: (Pharmacological Activity on Antigen-Induced Bronchoconstriction Model of Guinea Pig)
Guinea pigs sensitized by ovalbumin were used and orally administered with the test compound suspended in 5% gum arabic. The activity for inhibiting antigen-induced bronchoconstriction after one hour after administration was measured by the Konzett-Rossler method.
Each of the sensitized guinea pigs was anesthesized by 35 mg/kg pentobarbital, a cannula was inserted into the respiratory tract and connected to an artificial respirator, a cannula was inserted into the jugular vein, and treatment was performed by 5 mg/kg suxamethonium and […] mepyramine. Next, the guinea pig was inhaled a nebulized ovalbumin to cause bronchoconstriction and the activity in inhibiting bronchoconstriction was found from the ratio of the amount of overflow volume to the detector to the amount of air blown volume from the artificial respirator.
As the test compound, the Compounds 19, 26, and 33 were used. As the control, the thromboxane synthase inhibitor OKY-046 and the 5-lipoxygenaseinhibitor A-64077 were used.

Crj-ICR male mice = assay: Acute toxicity test; type: in vivo, mouse; conditions: intraperitoneal, dosages of up to 1000 mg/kg, 7 days observation
Protocol: Crj-ICR male mice (7 weeks old, five mice to a group) were used. The test compound (Compounds 9, 26, and 33) was suspended in 0.5% sodium carboxymethylcellulose and administered intraperitoneally at a ratio of 10 ml/kg. The survival of the animals was observed up until 7 days after administration.

[2] = rat polymorphonuclear leukocytes, calcium ionophore A-23187, 37° C., read-out: LTBI IC50 (inhibition of leukotriene B4 production)

`NC(=O)N(O)CCCCCCCCCCn1c(-c2cccnc2)cc2ccccc21` [Compound 11, N-hydroxy-N-[10-[1-[2-(3-pyridyl)indolyl]]decyl]urea] gave an IC50 (Thromboxane synthase) of 0.8 nM and an IC50 (Lipoxygenase; [2]) of 9 nM.

`NC(=O)N(O)CCCCCCn1cc(-c2cccnc2)c2ccccc21` [Compound 21, N-Hydroxy-N-[6-[1-[3-(3-pyridyl)indolyl]]hexyl]urea] gave an IC50 (Thromboxane synthase) of 15 nM and an IC50 (Lipoxygenase; [2]) of 40 nM.

Work on `NC(=O)N(O)CCCCCCn1cc(Cc2cccnc2)c2ccccc21` [Compound 18, N-Hydroxy-N-[6-[1-[3-(3-pyridylmethyl)indolyl]]hexyl]urea] yielded an IC50 (Thromboxane synthase) of 300 nM and an IC50 (Lipoxygenase; [2]) of 100 nM.

For `NC(=O)N(O)CCCCCCCCCCCCn1c(-c2cccnc2)cc2ccccc21` [Compound 1, N-Hydroxy-N-[12-[1-[2-(3-pyridyl)indolyl]]dodecyl]urea], the IC50 (Thromboxane synthase) was 3 nM and the IC50 (Lipoxygenase; [2]) was 6 nM.

Work on `NC(=O)N(O)Cc1ccc(Cc2cn(Cc3cccnc3)c3ccccc23)cc1` [Compound 27, N-Hydroxy-N-[4-[3-[1-(3-pyridylmethyl)indolyl]]methylbenzyl]urea] yielded an IC50 (Thromboxane synthase) of 70 nM and an IC50 (Lipoxygenase; [2]) of 100 nM.

`O=C(O)/C=C/c1ccc(Cn2ccnc2)cc1` [OKY-046, reference compound] gave an ED50 [1] of 260 mg/kg.

With `Cn1c(-c2cccnc2)c(C=CCN(O)C(N)=O)c2ccccc21` [Compound 24, N-Hydroxy-N-[3-[3-[1-methyl-2-(3-pyridyl)indolyl]]-2-propenyl]urea] the IC50 (Thromboxane synthase) was 40 nM and the IC50 (Lipoxygenase; [2]) was 4000 nM.

In the case of `NC(=O)N(O)Cc1cn(Cc2cccnc2)c2ccccc12` [Compound 26, N-Hydroxy-N-[3-[1-(3-pyridylmethyl)indolyl]methyl]urea], the IC50 (Thromboxane synthase) is reported as 700 nM, the IC50 (Lipoxygenase) is reported as 3000 nM and the ED50 [1] is reported as 75 mg/kg.

`Cc1c(-c2cccnc2)c2ccccc2n1CCN(O)C(N)=O` [Compound 20, N-Hydroxy-N-[2-[1-[2-methyl-3-(3-pyridyl)indolyl]]ethyl]urea] was tested, and the IC50 (Thromboxane synthase) was 5 nM and the IC50 (Lipoxygenase; [2]) was 1500 nM.

`NC(=O)N(O)CC=Cc1cn(Cc2cccnc2)c2ccccc12` [Compound 25, N-hydroxy-N-[3-[3-[1-(3-pyridylmethyl)indolyl]]-2-propenyl]urea] gave an IC50 (Thromboxane synthase) of 150 nM and an IC50 (Lipoxygenase; [2]) of 200 nM.

Work on `Cn1cc(-c2cccnc2)c2cc(CN(O)C(N)=O)ccc21` [Compound 40, N-Hydroxy-N-[5-[1-methyl-3-(3-pyridyl)indolyl]methyl]urea] yielded an IC50 (Thromboxane synthase) of 30 nM and an IC50 (Lipoxygenase; [2]) of 700 nM.

Compound `CC(c1ccc2c(c1)c(-c1cccnc1)cn2C)N(O)C(N)=O` (stereo not shown) [Compound 45, N-Hydroxy-N-[1-[5-[1-methyl-3-(3-pyridyl)indolyl]]ethyl]urea] has an IC50 (Thromboxane synthase) of 60 nM and an IC50 (Lipoxygenase; [2]) of 2500 nM.

`CC(c1cc2ccccc2s1)N(O)C(N)=O` (stereo not shown) [Compound A-64077, reference compound] was tested, and the ED50 [1] was 300 mg/kg.

`NC(=O)N(O)Cc1ccc2c(ccn2Cc2cccnc2)c1` [Compound 33, N-hydroxy-N-[5-[1-(3-pyridylmethyl)indolyl]methyl]urea] was tested, and the ED50 [1] was 30 mg/kg.

`NC(=O)N(O)CCn1cc(-c2cccnc2)c2ccccc21` [Compound 19, N-Hydroxy-N-[2-[1-[3-(3-pyridyl)indolyl]]ethyl]urea] gave an IC50 (Thromboxane synthase) of 15 nM, an IC50 (Lipoxygenase; [2]) of 300 nM and an ED50 [1] of 30 mg/kg.

In the case of `NC(=O)N(O)CCCCCCn1c(-c2cccnc2)c(Cl)c2cc(Cl)ccc21` [Compound 9, N-[6-[1-[3,5-dichloro-2-(3-pyridyl)indolyl]]hexyl]-N-hydroxyurea], the “Deaths (acute toxicity)” value (Crj-ICR male mice) is reported as “no deaths”.

In the case of `NC(=O)N(O)CCCCCCCCn1c(-c2cccnc2)cc2ccccc21` [Compound 6, N-Hydroxy-N-[8-[1-[2-(3-pyridyl)indolyl]]octyl]urea], the IC50 (Thromboxane synthase) is reported as 0.7 nM and the IC50 (Lipoxygenase; [2]) is reported as 10 nM.

With `Cc1c(-c2cccnc2)n(C)c2ccc(C#CC(C)N(O)C(N)=O)cc12` (stereo not shown) [Compound 44, N-[2-[4-[5-[1,3-dimethyl-2-(3-pyridyl)indolyl]]-3-butynyl]]-N-hydroxyurea] the IC50 (Thromboxane synthase) was 30 nM and the IC50 (Lipoxygenase; [2]) was 600 nM.

Compound `Cc1c(-c2cccnc2)n(C)c2ccc(CN(O)C(N)=O)cc12` [Compound 35, N-[5-[1,3-Dimethyl-2-(3-pyridyl)indolyl]methyl]-N-hydroxyurea] has an IC50 (Thromboxane synthase) of 40 nM and an IC50 (Lipoxygenase; [2]) of 2000 nM.

`Cc1c(-c2cccnc2)n(CCCCCCN(O)C(N)=O)c2ccc(Cl)cc12` [Compound 10, N-[6-[1-[5-Chloro-3-methyl-2-(3-pyridyl)indolyl]]hexyl]-N-hydroxyurea] was tested, and the IC50 (Thromboxane synthase) was 0.7 nM and the IC50 (Lipoxygenase; [2]) was 30 nM.

`Cc1c(-c2cccnc2)n(C)c2ccc(C(C)N(O)C(N)=O)cc12` (stereo not shown) [Compound 41, N-[1-[5-[1,3-Dimethyl-2-(3-pyridyl)indolyl]]ethyl]-N-hydroxyurea] showed an IC50 (Thromboxane synthase) of 70 nM and an IC50 (Lipoxygenase; [2]) of 2000 nM.
